Key:
OATP1B1 = target: T1, OATP1B1 (Homo sapiens, UniProt Q9Y6L6); details: cited from earlier work
T1 sequence (Q9Y6L6 1-691): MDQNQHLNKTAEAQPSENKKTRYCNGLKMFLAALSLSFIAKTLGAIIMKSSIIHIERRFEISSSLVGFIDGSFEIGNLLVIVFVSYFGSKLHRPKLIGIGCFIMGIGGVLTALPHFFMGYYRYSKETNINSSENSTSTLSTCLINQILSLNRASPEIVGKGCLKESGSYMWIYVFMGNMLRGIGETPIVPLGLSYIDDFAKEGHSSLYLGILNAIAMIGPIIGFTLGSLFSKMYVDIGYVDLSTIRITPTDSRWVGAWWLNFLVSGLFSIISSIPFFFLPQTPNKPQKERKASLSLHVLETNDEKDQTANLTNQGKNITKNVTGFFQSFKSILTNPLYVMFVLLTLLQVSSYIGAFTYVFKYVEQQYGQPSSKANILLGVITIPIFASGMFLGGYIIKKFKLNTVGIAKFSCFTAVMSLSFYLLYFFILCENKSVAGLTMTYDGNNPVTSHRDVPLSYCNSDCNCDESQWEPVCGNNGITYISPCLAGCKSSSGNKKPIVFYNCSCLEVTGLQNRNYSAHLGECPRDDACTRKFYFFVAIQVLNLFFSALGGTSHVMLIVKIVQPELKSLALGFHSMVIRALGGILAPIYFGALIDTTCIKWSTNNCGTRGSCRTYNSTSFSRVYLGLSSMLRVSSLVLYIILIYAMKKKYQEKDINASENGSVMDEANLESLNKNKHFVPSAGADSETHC

[1] = Phase-1 drug-drug interaction study of Odalasvir, Simeprevir and Compound (III) in healthy volunteers; format: in vivo, human
Source text: The following daily doses were employed:

[2] = co-administered with SMV; cited from earlier work
CYP = CYP inhibition potential; details: any CYP
BSEP = BSEP (Homo sapiens, UniProt O95342); details: cited from earlier work
BSEP, sequence (O95342 whole entry): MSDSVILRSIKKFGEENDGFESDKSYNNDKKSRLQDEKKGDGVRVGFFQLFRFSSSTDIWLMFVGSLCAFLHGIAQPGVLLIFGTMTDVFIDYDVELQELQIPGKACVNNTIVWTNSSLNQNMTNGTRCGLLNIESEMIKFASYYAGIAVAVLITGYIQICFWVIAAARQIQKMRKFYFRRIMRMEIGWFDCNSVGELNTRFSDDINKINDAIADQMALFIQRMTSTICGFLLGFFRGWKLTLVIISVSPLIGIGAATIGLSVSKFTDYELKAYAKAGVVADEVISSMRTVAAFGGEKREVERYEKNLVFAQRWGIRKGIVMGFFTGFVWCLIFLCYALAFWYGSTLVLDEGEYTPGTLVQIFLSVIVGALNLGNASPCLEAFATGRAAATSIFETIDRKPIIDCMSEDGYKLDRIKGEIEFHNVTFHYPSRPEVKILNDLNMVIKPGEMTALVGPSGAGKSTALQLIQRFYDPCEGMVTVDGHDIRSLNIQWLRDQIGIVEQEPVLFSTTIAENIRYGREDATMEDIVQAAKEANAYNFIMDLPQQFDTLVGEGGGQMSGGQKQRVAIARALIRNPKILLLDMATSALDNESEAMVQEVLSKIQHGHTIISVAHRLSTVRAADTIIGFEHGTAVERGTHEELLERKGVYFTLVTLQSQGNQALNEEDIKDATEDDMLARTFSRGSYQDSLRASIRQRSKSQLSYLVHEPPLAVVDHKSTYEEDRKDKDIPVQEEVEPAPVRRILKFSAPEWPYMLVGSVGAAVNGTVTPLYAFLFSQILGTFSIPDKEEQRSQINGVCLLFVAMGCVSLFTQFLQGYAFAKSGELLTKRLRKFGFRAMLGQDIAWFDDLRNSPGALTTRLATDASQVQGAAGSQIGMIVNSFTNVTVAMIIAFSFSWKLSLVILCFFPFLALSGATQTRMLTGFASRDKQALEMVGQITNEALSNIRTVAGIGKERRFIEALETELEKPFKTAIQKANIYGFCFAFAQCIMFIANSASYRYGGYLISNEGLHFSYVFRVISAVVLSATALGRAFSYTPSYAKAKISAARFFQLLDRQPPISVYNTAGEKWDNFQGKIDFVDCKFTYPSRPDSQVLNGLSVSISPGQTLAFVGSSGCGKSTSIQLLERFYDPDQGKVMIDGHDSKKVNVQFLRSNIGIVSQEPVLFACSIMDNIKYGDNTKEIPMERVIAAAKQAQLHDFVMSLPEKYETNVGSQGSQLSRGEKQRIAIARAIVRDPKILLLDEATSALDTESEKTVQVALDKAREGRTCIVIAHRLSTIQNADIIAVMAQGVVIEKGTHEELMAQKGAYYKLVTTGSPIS

[3] = PK of single agents vs fixed dose combinations, single dose in healthy volunteers (Example 13); format: in vivo, human; details: mean ± SD
Procedure: SMV (100 mg), ODV (50 mg), and Compound (III) (800 mg) were administered as three different formulations or together as single doses in vivo to healthy volunteers. The arms of the study included: • Arm 1 (Reference Arm): Single oral doses of single agents, one SMV 100-mg capsule, one ODV 50-mg tablet as granule layered solid dispersion with copovidone and poloxamers, and two Compound (III) 400-mg tablets, administered together. • Arm 2: Single oral dose of fixed dose combination (FDC02): SMV 100 mg+ODV 50 mg as a spray dried solid dispersion with HPMC-AS L in a ratio ODV/HPMC-AS L 1/1 w/w+Compound (III) 800 mg • Arm 3: Single oral dose of fixed dose combination (FDC04): SMV 100 mg+ODV 50 mg as a spray dried solid dispersion with HPMC-AS L in a ratio ODV/HPMC-AS L 1/3 w/w+Compound (III) 800 mg • Arm 4: Single oral dose of fixed dose combination (FDC01): SMV 100 mg+ODV 50 mg as a spray dried solid dispersion with copovidone and poloxamers+Compound (III) 800 mg
PK parameters, including Cmax, tmax, AUClast, and AUC∞ were measured for Compound (III), ODV, SMV, and metabolites Compound A-1 and Compound A-3 for each Arm of the study. Arms that included fixed dose combinations (FDC) (Arm 2, Arm 3, and Arm 4) were then compared to a single oral dose (Arm 1, the reference Arm). Table 9, Table 10, Table 11, Table 12 and Table 13 display relevant PK parameters and FIG. 9, FIG. 10, FIG. 11, FIG. 12, and FIG. 13 depict the plasma concentration over time of SMV, ODV, Compound A-1, and Compound A-3 for each Arm of the study.

[4] = Phase 2a open-label combination study, pharmacokinetics; format: in vivo, human
Procedure: A randomized, Phase 2a, open-label study was carried out to evaluate the safety, pharmacokinetics and efficacy of the combination of Compound (III), Odalasvir and Simeprevir in Genotype 1 treatment-naïve subjects with chronic hepatitis C. Other treatment-naïve subjects included Genotype 2, 3, 4, 5 and 6.
The aim of the study was to determine the efficacy, pharmacokinetics (PK), and safety of Compound (II)+Odalasvir±SMV in HCV-infected subjects.
This was an open-label study evaluating various dosing regimens of Compound (III)+Odalasvir±SMV for 6-8 weeks in treatment-nave HCV-infected subjects with varying clinical characteristics (e.g., GT 1 or 3, presence/absence of compensated Child Pugh A cirrhosis). Efficacy, PK and safety evaluations were conducted during and through 24 weeks post dosing. Up to 15 cohorts were enrolled; data was generated from cohorts that have completed dosing.

P-gp = P-gp (Homo sapiens, UniProt P08183); details: cited from earlier work
P-gp, sequence (P08183 whole entry): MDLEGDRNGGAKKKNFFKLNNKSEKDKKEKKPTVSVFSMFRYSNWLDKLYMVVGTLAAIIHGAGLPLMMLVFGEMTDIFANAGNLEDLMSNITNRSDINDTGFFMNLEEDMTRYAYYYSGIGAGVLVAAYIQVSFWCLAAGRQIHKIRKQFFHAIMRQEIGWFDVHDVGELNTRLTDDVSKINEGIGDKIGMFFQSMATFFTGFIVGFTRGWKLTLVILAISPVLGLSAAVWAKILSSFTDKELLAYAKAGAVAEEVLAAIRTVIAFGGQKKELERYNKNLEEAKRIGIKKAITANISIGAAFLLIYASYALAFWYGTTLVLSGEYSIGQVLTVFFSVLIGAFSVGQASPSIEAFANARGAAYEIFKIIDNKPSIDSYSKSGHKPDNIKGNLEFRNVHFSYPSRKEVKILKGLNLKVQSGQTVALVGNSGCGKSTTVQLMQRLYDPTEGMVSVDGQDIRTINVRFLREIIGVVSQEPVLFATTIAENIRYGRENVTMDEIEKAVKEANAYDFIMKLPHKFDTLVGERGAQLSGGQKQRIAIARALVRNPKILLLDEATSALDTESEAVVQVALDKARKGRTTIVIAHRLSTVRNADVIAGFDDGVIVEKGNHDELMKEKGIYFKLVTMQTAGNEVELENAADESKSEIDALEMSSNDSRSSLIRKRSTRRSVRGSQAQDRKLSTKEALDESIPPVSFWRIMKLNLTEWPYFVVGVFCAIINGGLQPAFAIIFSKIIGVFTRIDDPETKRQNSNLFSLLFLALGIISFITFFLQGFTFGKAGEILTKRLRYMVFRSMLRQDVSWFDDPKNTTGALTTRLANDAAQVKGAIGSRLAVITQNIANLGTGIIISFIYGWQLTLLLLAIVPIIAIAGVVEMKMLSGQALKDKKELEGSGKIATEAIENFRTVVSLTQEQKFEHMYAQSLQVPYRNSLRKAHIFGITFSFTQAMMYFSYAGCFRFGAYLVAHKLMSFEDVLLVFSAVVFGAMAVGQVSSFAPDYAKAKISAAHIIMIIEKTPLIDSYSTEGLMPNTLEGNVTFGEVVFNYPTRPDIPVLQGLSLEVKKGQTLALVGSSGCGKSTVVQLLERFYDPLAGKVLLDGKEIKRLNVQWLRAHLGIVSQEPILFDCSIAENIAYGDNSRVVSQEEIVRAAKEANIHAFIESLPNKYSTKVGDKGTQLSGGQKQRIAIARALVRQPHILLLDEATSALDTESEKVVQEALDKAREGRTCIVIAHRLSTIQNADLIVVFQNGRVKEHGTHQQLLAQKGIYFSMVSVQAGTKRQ

[5] = co-administered with SMV; cited from earlier work; remark: listed apart in the source
MRP2 = MRP2 (Homo sapiens, UniProt Q92887); details: cited from earlier work
MRP2, sequence (Q92887 whole entry): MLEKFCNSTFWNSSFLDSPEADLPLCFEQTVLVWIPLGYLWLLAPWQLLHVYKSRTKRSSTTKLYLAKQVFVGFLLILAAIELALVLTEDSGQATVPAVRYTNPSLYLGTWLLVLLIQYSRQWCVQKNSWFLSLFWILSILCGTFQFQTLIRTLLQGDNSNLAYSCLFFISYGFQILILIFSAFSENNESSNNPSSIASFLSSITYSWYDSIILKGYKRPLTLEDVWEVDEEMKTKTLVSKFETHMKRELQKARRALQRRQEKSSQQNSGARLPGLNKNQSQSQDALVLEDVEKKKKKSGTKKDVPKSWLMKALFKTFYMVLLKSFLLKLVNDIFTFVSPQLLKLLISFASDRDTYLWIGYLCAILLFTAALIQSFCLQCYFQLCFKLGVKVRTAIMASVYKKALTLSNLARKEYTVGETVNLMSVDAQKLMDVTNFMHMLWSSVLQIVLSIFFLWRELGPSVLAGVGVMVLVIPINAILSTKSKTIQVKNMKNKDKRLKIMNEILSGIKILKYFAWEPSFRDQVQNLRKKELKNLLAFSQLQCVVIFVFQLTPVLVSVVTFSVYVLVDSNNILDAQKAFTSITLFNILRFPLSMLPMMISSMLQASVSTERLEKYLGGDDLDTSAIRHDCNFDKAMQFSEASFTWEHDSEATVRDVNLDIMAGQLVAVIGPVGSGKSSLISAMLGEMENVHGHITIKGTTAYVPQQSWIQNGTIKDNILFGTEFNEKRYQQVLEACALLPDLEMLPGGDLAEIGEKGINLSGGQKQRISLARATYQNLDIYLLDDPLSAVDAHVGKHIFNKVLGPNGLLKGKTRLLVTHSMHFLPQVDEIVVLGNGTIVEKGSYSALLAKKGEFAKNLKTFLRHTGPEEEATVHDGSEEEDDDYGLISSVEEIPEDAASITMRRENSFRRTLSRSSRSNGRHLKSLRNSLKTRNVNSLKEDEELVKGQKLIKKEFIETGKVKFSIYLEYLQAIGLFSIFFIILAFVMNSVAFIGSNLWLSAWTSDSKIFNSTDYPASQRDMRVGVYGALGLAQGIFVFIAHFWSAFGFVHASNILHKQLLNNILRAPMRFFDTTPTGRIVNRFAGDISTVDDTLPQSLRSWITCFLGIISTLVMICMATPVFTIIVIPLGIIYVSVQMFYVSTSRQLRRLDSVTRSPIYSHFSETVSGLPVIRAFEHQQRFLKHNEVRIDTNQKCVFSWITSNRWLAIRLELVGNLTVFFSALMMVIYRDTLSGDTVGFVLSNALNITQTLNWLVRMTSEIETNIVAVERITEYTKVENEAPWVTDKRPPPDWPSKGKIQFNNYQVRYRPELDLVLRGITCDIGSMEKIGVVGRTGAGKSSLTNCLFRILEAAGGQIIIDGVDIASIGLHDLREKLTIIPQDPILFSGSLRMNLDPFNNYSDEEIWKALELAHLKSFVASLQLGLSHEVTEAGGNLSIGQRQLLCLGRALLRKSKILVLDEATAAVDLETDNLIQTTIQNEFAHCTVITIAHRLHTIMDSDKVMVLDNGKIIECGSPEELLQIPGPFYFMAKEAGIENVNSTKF

For `COc1ccc2c(O[C@@H]3C[C@H]4C(=O)N[C@]5(C(=O)NS(=O)(=O)C6CC6)C[C@H]5/C=C\CCCCN(C)C(=O)[C@@H]4C3)cc(-c3nc(C(C)C)cs3)nc2c1C` [Simeprevir, reference compound], the “in vitro inhibition of OATP1B1” value (OATP1B1) is given as “strong in vitro inhibition”, the “effect of Compound (III) on SMV or ODV” value ([1]; DDI study results) is given as “no apparent effect” and the “increase of exposure caused by Odalasvir” value ([1]; DDI study results) is given as 1.6 ×. For the same compound, the “increase of exposure, effect of the three Compounds” value ([1]; DDI study results) was 1.6 ×, the “increase of exposure on co-administration of Compounds I, II and III” value ([1]; human in vivo study (Example 1)) was 1.6 times and the “effect of Compound (III) on bioavailability of SMV or ODV” value ([1]; human, in vivo) was “does not alter”. The “increase of bioavailability of SMV by ODV” value ([1]; human, in vivo) was 1.6 fold, the “increase in exposure of Digoxin” value [2] was 35% and the CYP inhibition potential (CYP) was “limited”. For the same compound, the “in vitro inhibition of BSEP” value (BSEP) was “strong/moderate”, the t1/2term ([3]; Arm 1 (reference): single agents) was 8.3 ± 1.8 h and the t1/2term ([3]; Arm 2: FDC02) was 8.7 ± 2.3 h. The Cmax ([3]; Arm 3: FDC04 (SMV 100 mg + ODV 50 mg spray dried with HPMC-AS L 1/3 w/w + Compound (III) 800 mg)) was 906 ± 321 ng/mL, the AUClast ([3]; Arm 3: FDC04) was 12893 ± 5828 ng·h/mL and the “AUC∞” value ([3]; Arm 3: FDC04) was 13449 ± 6015 ng·h/mL. For the same compound, the t1/2term ([3]; Arm 3: FDC04) was 9.1 ± 1.6 h, the t1/2term ([3]; Arm 4: FDC01) was 8.5 ± 1.5 h and the “observed exposures in Cohort 1 / group (i)” value ([4]; Compound (III) 400 mg, ODV 50 mg QD, SMV 100 mg QD) was “higher than anticipated”. The “decrease of SMV exposure on reducing SMV dosing from 100 mg to 75 mg QD” value ([4]; in vivo) was “less than proportionally”, the “in vitro inhibition of P-gp” value (P-gp) was “strong/moderate” and the “increase in Rosuvastatin exposure” value [5] was 3 fold. For the same compound, the “in vitro inhibition of MRP2” value (MRP2) was “strong/moderate”.

From patent US20180021360A1, “Combination Therapy Regimen For Treatment Of Selected HCV Genotypes” (JANSSEN PHARMACEUTICALS, INC., priority 2016, published 2018)
